Numbers after ± are expanded uncertainties.
Columns and labels:
[1] = 298.15 K, 101.33 kPa, Liquid
[2] = refractive index (Na D-line) (dimensionless); conditions: 298.15 K; 101.33 kPa; Liquid; Standard Abbe refractometry

mass density [1] | refractive index [2] | mass density ([1]; Pycnometric method) | SMILES
1063.33 ± 1.3 kg/m3 | 1.3672 ± 0.0008 | – | COC(=O)OC [dimethyl carbonate]
– | 1.3262 ± 0.0007 | 786.49 ± 0.71 kg/m3 | CO [methanol]
